# Reference: paper PMC1989143, “An Expanded Set of Amino Acid Analogs for the Ribosomal Translation of Unnatural Peptides” (PLoS ONE, 2007)
# Key:
# Experiment in all cases: tRNA aminoacylation competition assay, MALDI-TOF MS
# Type in all cases: biochemical
# [1] = target: T1, AspRS (Escherichia coli, UniProt P21889); conditions: 50000 µM; 50 µM natural Asp (Table 3), 6 mM ATP, 17 mM MgCl2, E. coli total tRNA, pH 7.4, 37 °C; competitive
# T1 construct: gene aspS; His-tagged, recombinant, purified
# Excerpt: tRNA aminoacylation competition assay, MALDI-TOF MS on AspRS
# [2] = target: T2, GluRS (Escherichia coli, UniProt P04805); conditions: 10000 µM; 10 µM natural Glu (Table 3), 6 mM ATP, 17 mM MgCl2, E. coli total tRNA, pH 7.4, 37 °C; competitive
# T2 construct: gene gltX; His-tagged, recombinant, purified
# T2 sequence (P04805 1-471): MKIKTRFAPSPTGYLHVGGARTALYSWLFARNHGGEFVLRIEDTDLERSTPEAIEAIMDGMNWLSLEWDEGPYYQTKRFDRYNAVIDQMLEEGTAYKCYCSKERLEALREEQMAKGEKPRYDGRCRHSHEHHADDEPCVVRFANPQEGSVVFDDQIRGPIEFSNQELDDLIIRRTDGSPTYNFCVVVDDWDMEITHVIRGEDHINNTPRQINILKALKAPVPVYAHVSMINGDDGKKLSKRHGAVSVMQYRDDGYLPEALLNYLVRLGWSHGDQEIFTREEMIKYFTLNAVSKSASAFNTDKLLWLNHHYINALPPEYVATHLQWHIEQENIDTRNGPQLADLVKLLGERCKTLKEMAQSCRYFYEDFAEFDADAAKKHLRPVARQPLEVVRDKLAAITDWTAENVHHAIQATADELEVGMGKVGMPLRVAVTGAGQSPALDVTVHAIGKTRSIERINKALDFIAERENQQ
# Excerpt: tRNA aminoacylation competition assay, MALDI-TOF MS on GluRS
# [3] = target: T3, LeuRS (Escherichia coli, UniProt P07813); conditions: 30000 µM; 30 µM natural Leu (Table 3), 6 mM ATP, 17 mM MgCl2, E. coli total tRNA, pH 7.4, 37 °C; competitive
# T3 construct: gene leuS; His-tagged, recombinant, purified; wild-type
# Excerpt: tRNA aminoacylation competition assay, MALDI-TOF MS on LeuRS
# [4] = target: T4, HisRS (Escherichia coli, UniProt P60906); conditions: 15000 µM; 15 µM natural His (Table 3), 6 mM ATP, 17 mM MgCl2, E. coli total tRNA, pH 7.4, 37 °C; competitive
# T4 construct: gene hisS; His-tagged, recombinant, purified
# T4 sequence (P60906 2-424): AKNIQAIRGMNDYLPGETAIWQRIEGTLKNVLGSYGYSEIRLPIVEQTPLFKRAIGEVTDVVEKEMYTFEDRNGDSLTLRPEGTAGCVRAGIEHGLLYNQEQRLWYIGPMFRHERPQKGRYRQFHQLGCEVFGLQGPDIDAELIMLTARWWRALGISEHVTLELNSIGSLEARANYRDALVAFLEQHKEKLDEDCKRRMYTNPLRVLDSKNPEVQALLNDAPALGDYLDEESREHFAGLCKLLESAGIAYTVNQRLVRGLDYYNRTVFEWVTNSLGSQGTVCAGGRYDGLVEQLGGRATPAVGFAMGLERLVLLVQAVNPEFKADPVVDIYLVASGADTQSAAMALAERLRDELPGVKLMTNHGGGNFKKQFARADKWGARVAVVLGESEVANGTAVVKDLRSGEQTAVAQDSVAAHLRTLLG
# Excerpt: tRNA aminoacylation competition assay, MALDI-TOF MS on HisRS
# [5] = target: T5, TyrRS (Escherichia coli, UniProt P0AGJ9); conditions: 5000 µM; 5 µM natural Tyr (Table 3), 6 mM ATP, 17 mM MgCl2, E. coli total tRNA, pH 7.4, 37 °C; competitive
# T5 construct: gene tyrS; His-tagged, recombinant, purified
# Excerpt: tRNA aminoacylation competition assay, MALDI-TOF MS on TyrRS
# [6] = target: T6, ValRS (Escherichia coli, UniProt P07118); conditions: 50000 µM; 50 µM natural Val (Table 3), 6 mM ATP, 17 mM MgCl2, E. coli total tRNA, pH 7.4, 37 °C; competitive
# T6 construct: gene valS; His-tagged, recombinant, purified
# T6 sequence (P07118 1-951): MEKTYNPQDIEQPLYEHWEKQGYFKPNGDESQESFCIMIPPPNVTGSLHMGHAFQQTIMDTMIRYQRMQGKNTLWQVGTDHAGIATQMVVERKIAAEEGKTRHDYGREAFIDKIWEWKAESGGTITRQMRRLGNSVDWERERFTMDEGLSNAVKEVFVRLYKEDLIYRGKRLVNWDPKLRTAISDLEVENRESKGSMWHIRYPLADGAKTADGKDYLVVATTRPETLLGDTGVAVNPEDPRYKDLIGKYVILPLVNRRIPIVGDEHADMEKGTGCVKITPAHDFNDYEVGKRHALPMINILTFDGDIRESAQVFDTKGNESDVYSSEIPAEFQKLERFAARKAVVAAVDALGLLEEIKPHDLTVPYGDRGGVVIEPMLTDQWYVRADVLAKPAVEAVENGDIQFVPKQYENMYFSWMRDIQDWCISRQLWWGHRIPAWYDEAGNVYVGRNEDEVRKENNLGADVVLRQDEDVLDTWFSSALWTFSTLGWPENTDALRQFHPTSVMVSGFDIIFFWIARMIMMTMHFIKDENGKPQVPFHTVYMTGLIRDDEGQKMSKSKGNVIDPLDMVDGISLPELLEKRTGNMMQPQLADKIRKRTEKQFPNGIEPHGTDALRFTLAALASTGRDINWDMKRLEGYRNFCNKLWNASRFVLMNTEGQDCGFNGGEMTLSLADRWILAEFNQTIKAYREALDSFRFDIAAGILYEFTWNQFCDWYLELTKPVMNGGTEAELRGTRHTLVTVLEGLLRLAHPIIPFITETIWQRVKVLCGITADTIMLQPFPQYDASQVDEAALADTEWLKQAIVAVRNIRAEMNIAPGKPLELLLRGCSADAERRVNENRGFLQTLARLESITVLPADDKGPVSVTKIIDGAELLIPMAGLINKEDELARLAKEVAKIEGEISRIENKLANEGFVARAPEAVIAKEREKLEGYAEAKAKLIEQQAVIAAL
# Excerpt: tRNA aminoacylation competition assay, MALDI-TOF MS on ValRS
# [7] = target: T7, MetRS (Escherichia coli, UniProt P00959); conditions: 50000 µM; 50 µM natural Met (Table 3), 6 mM ATP, 17 mM MgCl2, E. coli total tRNA, pH 7.4, 37 °C; competitive
# T7 construct: gene metG; His-tagged, recombinant, purified
# T7 sequence (P00959 2-677): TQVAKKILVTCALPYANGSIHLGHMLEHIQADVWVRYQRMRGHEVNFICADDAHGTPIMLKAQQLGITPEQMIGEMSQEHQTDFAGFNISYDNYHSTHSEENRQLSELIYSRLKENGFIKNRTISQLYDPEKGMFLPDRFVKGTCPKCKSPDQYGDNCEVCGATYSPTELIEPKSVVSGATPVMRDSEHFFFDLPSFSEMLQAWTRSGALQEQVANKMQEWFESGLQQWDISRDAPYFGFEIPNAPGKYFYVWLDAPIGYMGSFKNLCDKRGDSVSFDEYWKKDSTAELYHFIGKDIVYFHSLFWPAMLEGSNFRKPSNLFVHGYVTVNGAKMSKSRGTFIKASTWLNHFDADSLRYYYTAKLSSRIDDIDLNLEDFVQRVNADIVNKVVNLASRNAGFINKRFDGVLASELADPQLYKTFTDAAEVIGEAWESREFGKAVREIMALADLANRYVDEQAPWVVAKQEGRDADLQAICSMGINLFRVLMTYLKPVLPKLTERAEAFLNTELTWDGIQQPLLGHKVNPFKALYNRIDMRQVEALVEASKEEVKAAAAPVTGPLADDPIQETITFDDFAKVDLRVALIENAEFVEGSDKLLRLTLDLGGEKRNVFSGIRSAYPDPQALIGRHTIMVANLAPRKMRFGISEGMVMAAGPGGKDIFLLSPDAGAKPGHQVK
# Excerpt: tRNA aminoacylation competition assay, MALDI-TOF MS on MetRS
# [8] = target: T8, ProRS (Escherichia coli, UniProt P16659); conditions: 50000 µM; 50 µM natural Pro (Table 3), 6 mM ATP, 17 mM MgCl2, E. coli total tRNA, pH 7.4, 37 °C; competitive
# T8 construct: gene proS; His-tagged, recombinant, purified
# T8 sequence (P16659 1-572): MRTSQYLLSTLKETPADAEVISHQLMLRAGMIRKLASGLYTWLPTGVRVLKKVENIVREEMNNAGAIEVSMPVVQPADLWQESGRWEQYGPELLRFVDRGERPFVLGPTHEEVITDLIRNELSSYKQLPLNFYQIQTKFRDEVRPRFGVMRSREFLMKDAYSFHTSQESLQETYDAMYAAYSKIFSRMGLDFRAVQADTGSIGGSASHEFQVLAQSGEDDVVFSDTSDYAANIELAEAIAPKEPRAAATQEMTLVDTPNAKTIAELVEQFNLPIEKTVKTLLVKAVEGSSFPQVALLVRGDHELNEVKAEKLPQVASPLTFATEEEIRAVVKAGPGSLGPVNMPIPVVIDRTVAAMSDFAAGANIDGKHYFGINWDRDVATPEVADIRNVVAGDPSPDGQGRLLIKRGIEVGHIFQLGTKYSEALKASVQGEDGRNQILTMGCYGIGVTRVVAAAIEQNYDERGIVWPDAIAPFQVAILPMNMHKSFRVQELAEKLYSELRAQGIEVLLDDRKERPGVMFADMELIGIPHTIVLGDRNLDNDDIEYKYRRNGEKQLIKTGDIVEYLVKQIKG
# Excerpt: tRNA aminoacylation competition assay, MALDI-TOF MS on ProRS
# [9] = target: T9, TrpRS (Escherichia coli, UniProt P00954); conditions: 30000 µM; 30 µM natural Trp (Table 3), 6 mM ATP, 17 mM MgCl2, E. coli total tRNA, pH 7.4, 37 °C; competitive
# T9 construct: gene trpS
# Excerpt: tRNA aminoacylation competition assay, MALDI-TOF MS on TrpRS
smiles,measurement,setting,value
"N[C@H](C(=O)O)[C@H](O)C(=O)O [C6, L-threo-β-hydroxy aspartic acid]",% Inhibition ^b,[1],59 (range 0.5) %
"N[C@@H](Cn1oc(=O)[nH]c1=O)C(=O)O [A15, L-quisqualic acid]",% Inhibition ^b,[2],52 (range 1.2) %
"CC(CC(N)C(=O)O)C(F)(F)F (centres unmarked) [N17, 5′,5′,5′-trifluoro leucine]",% Inhibition ^b,[3],83 (range 16.7) %
"N[C@@H](Cc1nccs1)C(=O)O [A1, β-2-thiazolyl-alanine]",% Inhibition ^b,[4],20 (range 0.4) %
"NC(Cc1ccc(O)c(F)c1)C(=O)O (centres unmarked) [A3, 3-fluoro tyrosine]",% Inhibition ^b,[5],46 (range 23.0) %
"NC1(C(=O)O)CCCC1 [α1, 1-amino cyclopentanoic acid]",% Inhibition ^b,[6],59 (range 3.3) %
[N-]=[N+]=NCC[C@H](N)C(=O)O [N6],% Inhibition ^b,[7],97 (range 0.5) %
"C#CCCC(N)C(=O)O (centres unmarked) [N1, 2-amino hex-5-ynoic acid]",% Inhibition ^b,[7],82 (range 3.3) %
"O=C(O)[C@@H]1CCN1 [N24, L-azetidine-2-carboxylic acid]",% Inhibition ^b,[8],28 (range 10.0) %
"CC(C)(C)C(N)C(=O)O (centres unmarked) [N13, t-butyl-glycine]",% Inhibition ^b,[6],80 (range 0.4) %
"CC(C)(C)C[C@H](N)C(=O)O [N18, β-t-butyl-alanine]",% Inhibition ^b,[3],52 (range 22.2) %
"N[C@@H](Cc1csc2ccccc12)C(=O)O [A23, 3-(thianaphthen-3-yl)-L-alanine]",% Inhibition ^b,[9],19 (range 2.7) %
"CCCC[C@H](N)C(=O)O [N3, L-norleucine]",% Inhibition ^b,[7],73 (range 0.5) %
"O=C(O)[C@@H]1C=CCN1 [N23, 3,4-dehydro proline]",% Inhibition ^b,[8],67 (range 12.6) %
